Results on two compounds are retold here after paper PMC11374660, “The novel family of Warbicin® compounds inhibits glucose uptake both in yeast and human cells and restrains cancer cell proliferation” (Frontiers in Oncology, 2024).

Series [1] has as its system A549 lung adenocarcinoma cells. The experiment in a line: Glucose consumption and lactate production over 8 h, A549. Particulars: A549, 25 µM, 1 mM glucose. It counts as cell-based, human. As for the experimental part: The influence of WBC compounds on glucose consumption over a longer time period was studied in the A549 adenocarcinoma and KMS-12-PE multiple myeloma cell lines. As such, different parameters needed to be optimized depending on whether cells were adherent or in suspension. As such, A549 cells were incubated at 125,000 cells/well in a 24-well plate in 300 µL RPMI medium for 8 h. For the KMS-12-PE cell line, 100,000 cells/well were incubated in 100 µL RPMI medium in a 96-well plate for 8 h. Medium was collected, spun down and HPLC-analyzed for measuring glucose and lactate levels. Metabolite levels were corrected for cell number, which always varied little over the span of 8 h. For every condition, at least 4 technical repeats were included.

Series [2] has as its system untransformed MCF10A cell line. The experiment in a line: Growth and apoptosis of untransformed MCF10A cells (IncuCyte). It counts as cell-based, human. Particulars: 1 mM glucose, 25 µM.
Series [3] is described as follows: Solubility of compound stocks. It counts as physicochemical. Particulars: 100% DMSO. As for the experimental part:
WBC-A and the complete structural analog library ( Supplementary Table 2 ) were purchased from different vendors, i.e. Enamine (n = 185), Life Chemicals (n = 10), LabNetwork (n = 4) and Uorsy (n = 4). WBC compounds in general are very insoluble in aqueous solutions, challenging their solubilization. Throughout this work, WBC compounds were always stock aliquoted at 50 mM concentration in 100% DMSO. In many cases, gentle sonication and heating up to 37°C was necessary to completely solubilize the compound stocks. Whereas WBC-A, -15C, -4C and -11C could be dissolved at 50 mM, some structural analogs remained in smooth or rough suspension, regardless of the concentration. Even though it is recommended to aliquot compound stocks, no significant decrease in compound strength by repeated freeze and thaw cycles in DMSO was observed.

The subject of series [4] is hexokinase. In words: Hexokinase activity in extracts of wild type yeast cells. The series is classed as biochemical, S. cerevisiae. Particulars: 50 µM; variable glucose / 5 mM ATP and variable ATP / 5 mM glucose. Here is the method: In vitro hexokinase activity of yeast cells was determined as described previously ([44], [76]). As such, the yeast cells were first grown to exponential phase on Complete Synthetic medium supplemented with 110 mM galactose. The cells were harvested and washed with ice-cold 25 mM MES buffer pH 6. Subsequently, cells were resuspended in lysis buffer (50 mM HEPES pH 7, 150 mM NaCl, 2.5 mM MgCl2, 5% glycerol and 1% Triton X-100) containing protease inhibitor after which the yeast cells were mechanically lysed. After protein level determination, total protein concentration was diluted to 0.1 mg/mL in reaction buffer (50 mM HEPES pH 7, 150 mM NaCl, 2.5 mM MgCl2, 5% glycerol). For measuring activity, reaction buffer was supplemented with 1.07 mM NADP^+ and 10 U/mL Glu6P dehydrogenase (Sigma-Aldrich G7877). After temperature equilibration of the plate at 30°C, the reaction was started by adding both ATP and glucose to the reaction buffer. OD340 was measured using the Synergy H1 Hybrid reader and hexokinase activity was determined based on the linear increase of absorbance in the first 10-20 s.

Series [5] deals with wild type yeast cells. The experiment in a line: Growth of wild type yeast (general toxicity). Particulars: 100 µM; 110 mM glucose medium and 325 mM glycerol + 430 mM ethanol medium. It counts as cell-based, S. cerevisiae. Here is the method: Growth curves were made by measuring OD595 in a 96-well plate using the Multiskan™ FC Microplate Photometer (Thermo Fisher Scientific). Typically, for tps1Δ rescue experiments, cells were (pre)grown in Complete Synthetic medium containing 110 mM galactose. Compounds were always added 10 min prior to glucose addition to ensure maximal interaction between the cells and compounds. Cells originating from the preculture were harvested, washed in medium without sugar, after which they were resuspended to an OD of 0.1 in 200 µL of the appropriate medium. At least three technical replicates were included per condition. OD595 was measured at 30°C every 30 min with a 10-min shaking interval.

In series [6] the test system is hxk2Δ hxk1Δ glk1Δ yeast cells. In words: Glucose uptake in hxk2Δ hxk1Δ glk1Δ yeast cells. It counts as cell-based, S. cerevisiae. Particulars: strain lacking glucose phosphorylation. Here is the method:
Zero-trans uptake of radioactively labeled [U-^14C]glucose, [U-^14C]fructose or [U-^14C]galactose by S. cerevisiae cells was determined in accordance with previous studies ([45], [75]). Cells were grown on different carbon sources depending on the experiment. For measuring glucose uptake activity in the tps1Δ and tps1Δ hxtΔ strains, cells were grown on YP medium containing 325 mM glycerol (measurement of 10 s). Typically, for compound characterization and kinetic studies in wild type and tps1Δ strains, cells were (pre)grown on Complete Synthetic medium supplemented with 110 mM galactose (measurement of 10 s). In the experiments on the influence of hexokinase activity on the sugar uptake rate, the measurement duration was shortened to 5 s and cells were always grown on YP medium containing 325 mM glycerol and 430 mM ethanol. After harvesting, cells were washed twice with ice-cold 25 mM MES-buffer pH 6, and resuspended in their respective medium without sugar to a final concentration of 45 mg (wet weight)/mL. The amount of added tracer was estimated to give a response close to at least 1000 counts per min in order to adequately counter background noise. […] The loaded filter was transferred to a scintillation vial containing 3 mL liquid scintillation cocktail (Ultima-Flo M, Perkin Elmer) and counted using the Hidex 300 SL. […]

The structures appear in SMILES notation.

Regarding `Cc1nc(SCC(=O)c2ccc3c(c2)NC(=O)CO3)c2c(-c3cccs3)csc2n1` [WBC-11C], the “inhibition of glucose consumption and lactate production” value in series [1] is “inhibited glucose consumption and lactate production”. Further, in series [2], the induction of apoptosis entry is recorded as “induces apoptosis”. Moreover, in series [3], the “concentration at which compound could be dissolved” value is no less than 50000 µM.

For `Cc1nc(Sc2nnc3n2CCCCC3)c2c(-c3cccs3)csc2n1` [WBC-A], in series [4], the “effect on in vitro hexokinase activity” value is recorded as “No significant effect”. Moreover, the “inhibition of glucose consumption and lactate production” value in series [1] is “did not cause inhibition”. Further, the “growth inhibition of wild type yeast” value in series [5] is recorded as “did not cause any growth inhibition at all”. For the same compound, the “concentration at which compound could be dissolved” value in series [3] was no less than 50000 µM. For the same compound, the “1 mM glucose uptake rate” value in series [6] was “little further inhibition”.
